Target: Substance-P receptor (Homo sapiens, UniProt P25103)
Assay: Displacement of [125I]-substance P from hNK1 receptor in chinese hamster ovarian (CHO) cells
Assay type: cell-based

Substance-P receptor, sequence (P25103 whole entry): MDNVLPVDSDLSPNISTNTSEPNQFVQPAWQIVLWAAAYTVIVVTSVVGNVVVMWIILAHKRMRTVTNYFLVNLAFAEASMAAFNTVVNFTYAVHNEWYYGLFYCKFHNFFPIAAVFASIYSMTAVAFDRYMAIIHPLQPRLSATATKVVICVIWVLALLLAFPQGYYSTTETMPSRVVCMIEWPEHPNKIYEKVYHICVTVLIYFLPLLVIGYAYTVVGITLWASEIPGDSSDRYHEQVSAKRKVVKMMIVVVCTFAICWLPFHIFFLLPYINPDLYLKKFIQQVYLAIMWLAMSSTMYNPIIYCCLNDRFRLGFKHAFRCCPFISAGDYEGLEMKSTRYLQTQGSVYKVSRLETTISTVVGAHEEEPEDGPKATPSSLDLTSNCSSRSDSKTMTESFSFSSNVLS

SMILES | IC50
CS(=O)(=O)N1CC2(CCN(C(=O)[C@H](COCc3ccc(Cl)c(Cl)c3)NCc3ccccc3)CC2)c2ccccc21 | 1 nM
O=C([C@H](COCc1ccc(Cl)c(Cl)c1)NCc1ccccc1)N1CCC2(CCc3ccccc32)CC1 | 602 nM
CS(=O)(=O)Nc1ccccc1N1CCN(C(=O)[C@H](COCc2ccc(Cl)c(Cl)c2)NCc2ccccc2)CC1 | 4.8 nM
CS(=O)(=O)N1CCC2(CCN(C(=O)[C@H](COCc3ccc(Cl)c(Cl)c3)NCc3ccccc3)CC2)C1 | 2500 nM
CS(=O)(=O)NCC1(c2ccccc2)CCN(C(=O)[C@H](COCc2ccc(Cl)c(Cl)c2)NCc2ccccc2)CC1 | 382 nM

More lines, now with the values ahead:

IC50 | SMILES
263 nM | COc1ccccc1C1CCN(C(=O)[C@H](COCc2ccc(Cl)c(Cl)c2)NCc2ccccc2)CC1
330 nM | Cc1ccccc1C1CCN(C(=O)[C@H](COCc2ccc(Cl)c(Cl)c2)NCc2ccccc2)CC1
558 nM | Cc1ccccc1N1CCN(C(=O)[C@H](COCc2ccc(Cl)c(Cl)c2)NCc2ccccc2)CC1
61 nM | CN(c1ccccc1C1CCN(C(=O)[C@H](COCc2ccc(Cl)c(Cl)c2)NCc2ccccc2)CC1)S(C)(=O)=O
547 nM | CS(=O)(=O)N(CC1CCN(C(=O)[C@H](COCc2ccc(Cl)c(Cl)c2)NCc2ccccc2)CC1)c1ccccc1
17 nM | CS(=O)(=O)Nc1ccccc1C1CCN(C(=O)[C@H](COCc2ccc(Cl)c(Cl)c2)NCc2ccccc2)CC1
13 nM | COc1ccccc1N1CCN(C(=O)[C@H](COCc2ccc(Cl)c(Cl)c2)NCc2ccccc2)CC1

Source: ChEMBL document CHEMBL1130887, “Serine derived NK1 antagonists. 2: A pharmacophore model for arylsulfonamide binding” (Bioorg Med Chem Lett, 1998)
